Test results from US20030144360A1, “Composition and method for modulating BAR/FXR receptor activity” (Allergan Sales, Inc., priority 2001, published 2003).
“And” between values parts separate entries of the source, which are not always exact repeats. Identical values can stand only once.

What was measured:
[1] = test system: human AR, mouse PXR, human PXR, ERα, human LXRα, mouse PPARα, mouse PPARγ, mouse PPARδ, human VDR, human TRB, mouse CARβ; assay: Repression of cognate ligand-induced activity of other nuclear receptor/RXR heterodimers (luciferase reporter); format: cell-based; conditions: 1 mM AGN 34 with cognate ligand
Protocol: Resulting chemiluminescence was measured in a luminometer.
Various other nuclear receptor/RXR heterodimers were incubated with the cognate ligand of the non-RXR component of the heterodimer. These were: human AR (androgen receptor), mouse PXR (10 μM pregnenolone-16-carbonitrile), human PXR (10 μM rifampicin), ERα (100 nM 17β-estradiol), human LXRα (30 μM hyodeoxycholic acid methyl ester), mouse PPARα (5 μM Wy 14,643), mouse PPARγ (1 μM rosiglitazone), mouse PPARδ (1 μM carbaprostacyclin), human VDR (100 nM 1,25-dihydroxyvitamin D3) and human TRB (100 nM triiodothyronine). No ligand was added to mouse CARβ which is constitutively active. Each compound was incubated in the presence or absence of 1 mM AGN 34, then assayed for luciferase reporter activity.

HFXR / HRXRop = target: T1, HFXR / HRXRop (Homo sapiens, UniProt P19793+Q96RI1); assay: Co-transfection luciferase assay, EcRE × 6 reporter, HFXR + HRXRop;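 note: CV-1 monkey cells transfected with receptor vectors, luciferase reporter and β-galactosidase internal control, exposed to compounds about 40 h, then lysed and luminescence read in a luminometer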
T1 sequence (Q96RI1 1-486): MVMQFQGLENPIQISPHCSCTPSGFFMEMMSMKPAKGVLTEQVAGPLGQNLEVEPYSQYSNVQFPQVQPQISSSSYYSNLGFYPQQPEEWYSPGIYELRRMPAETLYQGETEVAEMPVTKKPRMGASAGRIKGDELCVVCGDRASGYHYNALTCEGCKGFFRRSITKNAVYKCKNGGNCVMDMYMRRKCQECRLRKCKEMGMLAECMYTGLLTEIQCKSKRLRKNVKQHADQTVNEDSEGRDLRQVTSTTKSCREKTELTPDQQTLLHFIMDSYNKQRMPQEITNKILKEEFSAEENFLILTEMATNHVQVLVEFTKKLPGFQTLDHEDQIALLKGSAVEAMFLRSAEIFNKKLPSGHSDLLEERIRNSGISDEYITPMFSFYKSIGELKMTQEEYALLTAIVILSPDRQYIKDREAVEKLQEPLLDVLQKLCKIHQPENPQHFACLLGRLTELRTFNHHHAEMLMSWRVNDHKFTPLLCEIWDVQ
T1 sequence (P19793 1-462): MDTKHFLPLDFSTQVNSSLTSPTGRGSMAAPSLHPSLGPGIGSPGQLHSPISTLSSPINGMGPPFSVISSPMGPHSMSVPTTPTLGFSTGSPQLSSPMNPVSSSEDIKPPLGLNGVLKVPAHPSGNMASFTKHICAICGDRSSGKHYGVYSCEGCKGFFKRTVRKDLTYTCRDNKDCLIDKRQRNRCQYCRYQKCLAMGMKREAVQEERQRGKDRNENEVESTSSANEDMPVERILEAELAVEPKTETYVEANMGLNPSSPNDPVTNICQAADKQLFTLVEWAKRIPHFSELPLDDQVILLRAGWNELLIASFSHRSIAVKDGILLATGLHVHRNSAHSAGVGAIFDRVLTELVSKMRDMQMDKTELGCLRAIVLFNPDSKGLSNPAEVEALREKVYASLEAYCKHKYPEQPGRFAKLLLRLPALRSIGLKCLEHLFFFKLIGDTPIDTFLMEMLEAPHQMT
Protocol: (§1) CV-1 African Green Monkey cells were grown in Dulbecco's Modified Eagle's medium supplemented with 10% resin-charcoal stripped fetal bovine serum (FBS), 50 U/ml penicillin G and 50 μg/ml streptomycin sulfate (DMEM-FBS) at 37° C. in 5% CO2. One day prior to transfection, cells were plated to 50-80% confluence using phenol red-free DMEM-FBS. Cells were transiently transfected by lipofection as described in Forman et al., 81 Cell 687 (1995). Liposomes (N-[1-(2,3-dioleoyloxy)propyl]-N,N,N-ammonium methyl sulfate, sold by Boehringer Mannheim under the name DOTAP) were formed according to the manufacturer's instructions. The liposomes contained reporter gene constructs (300 ng/10^5 cells); cytomegalovirus driven expression vectors (25 ng/10^5 cells) were added as indicated along with CMX-Bgal (500 ng/10^5 cells) as an internal control. After 2 hours the liposomes were removed and replaced with fresh media. Cells were incubated for approximately 40 hours with phenol red-free DMEM-FBS containing the indicated compounds. After exposure to the specified ligand, the cells were harvested.
(§2) The harvested cells were assayed for the presence of luciferase activity. Cells were lysed in 0.1 M KPO4 (pH 7.8), 1.0% TRITON® X-100, 1.0 mM dithiolthreitol (DTT) and 2 mM ethylenediamine tetracetic acid (EDTA). Luciferase activity was measured by reaction of the cell lysates with luciferin in a reaction buffer comprising: 20 mM tricine, 1.07 mM Mg(CO3)4-Mg(OH)2-5H2O, 2.67 mM MgSO4.7H2O, 0.1 mM EDTA, 0.5 mM Sodium luciferin, 0.15 mg/ml Coenzyme A, 5 mM DTT, and 0.5 mM adenosine triphosphate (ATP). Resulting chemiluminescence was measured in a luminometer. […] All points were assayed in triplicate and varied by less than 15%. Each experiment was repeated three or more times with similar results.
(§3) As shown below, in most cases hRXRop was recombinantly coexpressed with one other of the indicated receptor constructs, so as to permit the formation of hetero-or homodimers containing hRXRop.
(§4) Expression of the luciferase reporter gene product was detected and quantified as described above.

MFXR / HRXRop = target: T2, MFXR / HRXRop (UniProt P19793+Q60641); assay: Co-transfection luciferase assay, EcRE × 6 reporter, MFXR + HRXRop;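 note: CV-1 African green monkey cells, liposome transfection with a β-galactosidase vector serving as internal control, luciferase chemiluminescence read after roughly 40 h compound exposure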
T2 sequence (Q60641 1-488): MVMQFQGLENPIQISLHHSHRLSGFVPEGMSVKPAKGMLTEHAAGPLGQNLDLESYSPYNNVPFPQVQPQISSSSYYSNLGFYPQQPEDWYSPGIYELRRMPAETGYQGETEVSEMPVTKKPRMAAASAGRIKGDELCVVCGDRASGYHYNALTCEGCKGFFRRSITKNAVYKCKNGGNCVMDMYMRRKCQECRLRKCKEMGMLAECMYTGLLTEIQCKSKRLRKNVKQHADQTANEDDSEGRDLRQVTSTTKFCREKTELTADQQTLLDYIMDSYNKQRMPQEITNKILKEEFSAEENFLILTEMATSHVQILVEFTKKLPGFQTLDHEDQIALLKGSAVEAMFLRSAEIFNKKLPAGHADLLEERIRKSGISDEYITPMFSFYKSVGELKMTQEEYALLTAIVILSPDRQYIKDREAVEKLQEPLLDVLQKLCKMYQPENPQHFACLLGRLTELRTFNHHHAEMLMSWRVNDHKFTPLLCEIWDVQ
T2 sequence (P19793 1-462): T1 sequence (P19793 1-462)
Protocol: as §1, §2, §3, §4

CCCCCCOc1c(\C(C)=C/C=C/C(C)=C/C(=O)O)cc(C(C)C)cc1C(C)C [AGN 34, (2E, 4E, 6Z)-7-(2-Hexyloxy-3,5-diisopropylphenyl)-3-methylocta-2,4,6-trienoic Acid]
repression of specific ligand-induced activity of other nuclear receptors [1]: unable to repress
Fold Activation (HFXR / HRXRop; 0.1 μM LG268 + 0.01 μM AGN 34): 2.36 fold
Reporter Activity (HFXR / HRXRop; 0.1 μM LG268 + 0.01 μM AGN 34): 0.76
Fold Activation (HFXR / HRXRop; 0.1 μM LG268 + 0.1 μM AGN 34): 1.45 fold
Reporter Activity (HFXR / HRXRop; 0.1 μM LG268 + 0.1 μM AGN 34): 0.47
Fold Activation (HFXR / HRXRop; 0.1 μM LG268 + 1 μM AGN 34): 1.23 fold
Reporter Activity (HFXR / HRXRop; 0.1 μM LG268 + 1 μM AGN 34): 0.40
Fold Activation (HFXR / HRXRop; 0.1 μM LG268 + 3 μM AGN 34): 1.26 fold
Reporter Activity (HFXR / HRXRop; 0.1 μM LG268 + 3 μM AGN 34): 0.41
Fold Activation (HFXR / HRXRop; 0.1 μM LG268 + 10 μM AGN 34): 1.22 fold
Reporter Activity (HFXR / HRXRop; 0.1 μM LG268 + 10 μM AGN 34): 0.39
Fold Activation (HFXR / HRXRop; 10 μM AGN 34 alone): 1.21 fold and 1.35 fold
Reporter Activity (HFXR / HRXRop; 10 μM AGN 34 alone): 0.41 and 0.44
Fold Activation (HFXR / HRXRop; 50 μM CDCA + 0.01 μM AGN 34): 15.00 fold
Reporter Activity (HFXR / HRXRop; 50 μM CDCA + 0.01 μM AGN 34): 5.14
Fold Activation (HFXR / HRXRop; 50 μM CDCA + 0.1 μM AGN 34): 11.73 fold
Reporter Activity (HFXR / HRXRop; 50 μM CDCA + 0.1 μM AGN 34): 4.02
Fold Activation (HFXR / HRXRop; 50 μM CDCA + 1 μM AGN 34): 7.08 fold and 5.51 fold
Reporter Activity (HFXR / HRXRop; 50 μM CDCA + 1 μM AGN 34): 2.42
Fold Activation (HFXR / HRXRop; 50 μM CDCA + 3 μM AGN 34): 5.78 fold
Reporter Activity (HFXR / HRXRop; 50 μM CDCA + 3 μM AGN 34): 1.98
Fold Activation (HFXR / HRXRop; 50 μM CDCA + 10 μM AGN 34): 6.58 fold
Reporter Activity (HFXR / HRXRop; 50 μM CDCA + 10 μM AGN 34): 2.25
Fold Activation (MFXR / HRXRop; 0.1 μM LG268 + 0.01 μM AGN 34): 27.08 fold
Reporter Activity (MFXR / HRXRop; 0.1 μM LG268 + 0.01 μM AGN 34): 6.73
Fold Activation (MFXR / HRXRop; 0.1 μM LG268 + 0.1 μM AGN 34): 1.56 fold
Reporter Activity (MFXR / HRXRop; 0.1 μM LG268 + 0.1 μM AGN 34): 0.39
Fold Activation (MFXR / HRXRop; 0.1 μM LG268 + 1 μM AGN 34): 1.07 fold
Reporter Activity (MFXR / HRXRop; 0.1 μM LG268 + 1 μM AGN 34): 0.27
Fold Activation (MFXR / HRXRop; 0.1 μM LG268 + 3 μM AGN 34): 1.04 fold
Reporter Activity (MFXR / HRXRop; 0.1 μM LG268 + 3 μM AGN 34): 0.26
Fold Activation (MFXR / HRXRop; 0.1 μM LG268 + 10 μM AGN 34): 1.18 fold
Reporter Activity (MFXR / HRXRop; 0.1 μM LG268 + 10 μM AGN 34): 0.29
Fold Activation (MFXR / HRXRop; 10 μM AGN 34 alone): 1.18 fold and 1.39 fold
Reporter Activity (MFXR / HRXRop; 10 μM AGN 34 alone): 0.26 and 0.35
Fold Activation (MFXR / HRXRop; 50 μM CDCA + 0.01 μM AGN 34): 19.61 fold
Reporter Activity (MFXR / HRXRop; 50 μM CDCA + 0.01 μM AGN 34): 4.37
Fold Activation (MFXR / HRXRop; 50 μM CDCA + 0.1 μM AGN 34): 10.99 fold
Reporter Activity (MFXR / HRXRop; 50 μM CDCA + 0.1 μM AGN 34): 2.45
Fold Activation (MFXR / HRXRop; 50 μM CDCA + 1 μM AGN 34): 6.19 fold and 5.26 fold
Reporter Activity (MFXR / HRXRop; 50 μM CDCA + 1 μM AGN 34): 1.38
Fold Activation (MFXR / HRXRop; 50 μM CDCA + 3 μM AGN 34): 5.77 fold
Reporter Activity (MFXR / HRXRop; 50 μM CDCA + 3 μM AGN 34): 1.29
Fold Activation (MFXR / HRXRop; 50 μM CDCA + 10 μM AGN 34): 6.11 fold
Reporter Activity (MFXR / HRXRop; 50 μM CDCA + 10 μM AGN 34): 1.36
